Reference: article PMC11984586, “A novel spider toxin as a selective antagonist of the Kv1 subfamily of voltage-gated potassium channels through gating modulation” (The Journal of Biological Chemistry, 2025)
Where two headings read alike, the source gives them in different places. Bridge positions count the residues as written; N and C are the ends. Peptide text beside a SMILES is read from it.

Key:
[1] = target: T1, Kv1.7/I386C mutant (Kv1.7∗) (Homo sapiens, UniProt Q96RP8, I386C); test: Gating-current recording, Kv1.7* in HEK293T cells; format: cell-based; settings: for inhibition at 10 µM: HEK-293T
T1 construct: expressed in transfected cells; host or cells: HEK293T
T1 sequence (Q96RP8 whole entry I386C): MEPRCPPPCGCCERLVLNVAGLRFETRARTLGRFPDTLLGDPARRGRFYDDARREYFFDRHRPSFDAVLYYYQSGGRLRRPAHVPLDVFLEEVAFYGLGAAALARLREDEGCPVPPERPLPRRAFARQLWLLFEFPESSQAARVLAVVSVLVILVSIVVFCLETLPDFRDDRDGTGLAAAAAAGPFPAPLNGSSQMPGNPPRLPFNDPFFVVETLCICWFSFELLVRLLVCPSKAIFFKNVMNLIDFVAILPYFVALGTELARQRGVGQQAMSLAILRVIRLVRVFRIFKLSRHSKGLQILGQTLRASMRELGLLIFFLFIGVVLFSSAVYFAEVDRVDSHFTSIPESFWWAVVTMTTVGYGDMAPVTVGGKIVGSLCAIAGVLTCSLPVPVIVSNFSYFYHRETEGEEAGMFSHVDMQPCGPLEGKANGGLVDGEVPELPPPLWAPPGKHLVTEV
Procedure: The cDNA of hKv1.1, hKv1.2, hKv1.3, rKv1.4, hKv1.5, mKv1.6, and hKv1.7 were subcloned into mammalian expression vectors pcDNA3.1 or pCMV-blank vectors, as well as other plasmids described previously ([35]). Channel mutants were generated by site-directed mutations. Briefly, the parental channel plasmid was amplified using a pair of oppositely directed primers harboring the designed mutation site, with KOD Fx (TOYOBO Co, Ltd). The resulting PCR mix was treated with FastDigest DpnI (Thermo Fisher Scientific) to remove the methylated template. Ten microliters of the digested product was then used to transform 100 μl E. coli DH5α competent cells. Transformants were randomly picked and sequenced to confirm the presence of the intended mutation.
CHO-K1 cells were selected for expressing Kv channels due to their lack of endogenous Kv channels, while HEK293 or ND7/23 cells were used for Nav and Cav channel expression. CHO-K1 cells were cultured in a Dulbecco's modified Eagle's medium/Ham's F-12 nutrient mixture (DMEM-F12) medium, and HEK293T and ND7/23 cells in DMEM medium, all supplemented with 10% fetal bovine serum and 1% penicillin-streptomycin (all from Gibco, Thermo Fisher Scientific, Inc) under standard conditions (37 °C, 5% CO2, and saturated humidity). These cell lines were purchased from Stem Cell Bank, Chinese Academy of Sciences. Channel plasmids were cotransfected with pEGFP-N1 (encoding GFP) into the respective cells using lipofectamine 2000, following the manufacturer's instructions (Invitrogen, Thermo Fisher Scientific, Inc.). Nav1.9-GFP plasmid was transfected into ND7/23 using the X-tremeGENE HP DNA Transfection Reagent (Roche). After 4 to 6 h transfection, cells were seeded onto poly-lysine–coated coverslips, and 24 to 36 h later, transfected cells were ready for patch-clamp analysis.
Patch clamp experiments were conducted using an electrophysiology platform comprising a MultiClamp 700B amplifier and an Axon Digidata 1550 AD/DA convertor (Axon Instruments). Data acquisition was performed with pClamp 10.5 software (Axon Instruments). All experiments were performed at room temperature.
Gating currents were recorded by transfecting HEK293T cells with a saturating dose of plasmid to ensure maximal channel expression. The Kv1.3/I472C and Kv1.7/I386C mutants were used to record the IgOFF, minimizing slow voltage sensor return as reported in previous studies ([28]). The bath solution contained (in mM) the following: 140 NMDG, 50 Hepes, 2 CaCl2, 2 MgCl2, 0.1 EDTA, and 0.01 CsCl (pH 7.3, adjusted with methanesulfonic acid), and the pipette solution contained (in mM) the following: 140 NMDG, 1 NMDG-Cl, 50 HF, 5 EGTA, and 50 Hepes (pH 7.3, adjusted with methanesulfonic acid). Gating charge movement (Q) was determined by integrating the area under the IgON and IgOFF traces, representing voltage sensor movement in response to depolarizing pulses. The data were normalized and plotted against voltage to generate Q-V curves, which were fitted using a Boltzmann function to estimate the voltage dependence of charge movement.

[2] = target: T2, Kv1.1/QM (Kv1.1/E283Q_T286M) (Homo sapiens, UniProt Q09470, E283Q/T286M); test: Whole-cell patch clamp, Kv1.1 double mutant; format: cell-based; settings: +30 mV, mean ± SD, n = 3–5, read-out: IC50, Kv1.1/QM current (full inhibition)
T2 construct: expressed in transfected cells; host or cells: CHO-K1
T2 sequence (Q09470 whole entry E283Q/T286M): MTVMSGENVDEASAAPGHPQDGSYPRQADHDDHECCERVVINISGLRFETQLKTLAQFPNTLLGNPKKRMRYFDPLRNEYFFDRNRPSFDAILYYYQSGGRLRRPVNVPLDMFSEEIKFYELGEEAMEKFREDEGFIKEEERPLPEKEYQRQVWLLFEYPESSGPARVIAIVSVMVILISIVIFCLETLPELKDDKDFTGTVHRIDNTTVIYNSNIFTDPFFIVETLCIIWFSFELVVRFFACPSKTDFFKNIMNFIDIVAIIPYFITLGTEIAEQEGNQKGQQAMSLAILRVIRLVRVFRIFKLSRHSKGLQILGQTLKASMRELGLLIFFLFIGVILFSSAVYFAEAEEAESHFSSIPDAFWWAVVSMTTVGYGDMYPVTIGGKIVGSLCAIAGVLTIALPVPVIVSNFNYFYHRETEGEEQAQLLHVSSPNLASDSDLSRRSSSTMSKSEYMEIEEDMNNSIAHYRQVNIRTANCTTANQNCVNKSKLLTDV
Text: In contrast, differences at positions 347, 355, and 358 between Kv1.3 and Kv1.1 prompted further analysis. To explore whether these discrepancies influence peptide-mediated inhibition, we substituted these residues in Kv1.3 with their homologous counterparts in Kv1.1 and assessed the MrVIII's inhibitory efficacy on these single-point mutants. […] To further investigate this, we introduced double adjacent mutations around Q355 and M358 in Kv1.3 to explore potential synergistic effects on MrVIII's inhibitory activity. […]
CHO-K1 cells were selected for expressing Kv channels due to their lack of endogenous Kv channels, while HEK293 or ND7/23 cells were used for Nav and Cav channel expression. […] After 4 to 6 h transfection, cells were seeded onto poly-lysine–coated coverslips, and 24 to 36 h later, transfected cells were ready for patch-clamp analysis. […]
For Kv current recordings, the bath solution contained (in mM) the following: 140 NaCl, 5 KCl, 1 MgCl2, 2 CaCl2, 10 glucose, and 10 Hepes (pH 7.3, adjusted with NaOH), and the pipette solution contained (in mM) the following: 140 KCl, 2.5 MgCl2, 11 EGTA, and 10 Hepes (pH 7.3, adjusted with KOH). […] Whole cell conductance (G) at each depolarizing voltage (V) was determined using the equation: G = I/(V−Vrev), where I is the current amplitude, and Vrev is the reversal potential. […]

CC[C@H](C)[C@@H]1NC(=O)[C@H](Cc2ccc(O)cc2)NC(=O)[C@H](CCC(N)=O)NC(=O)[C@@H]2CCCN2C(=O)[C@@H]2CSSC[C@H](NC(=O)[C@H](C)NC(=O)[C@H](CO)NC(=O)[C@H](CCC(=O)O)NC(=O)[C@H](CCC(=O)O)NC(=O)[C@@H](N)[C@@H](C)O)C(=O)NCC(=O)NCC(=O)N[C@@H](Cc3ccccc3)C(=O)N[C@@H](CC(N)=O)C(=O)N[C@@H](C)C(=O)N[C@@H](CCCNC(=N)N)C(=O)N[C@H]3CSSC[C@H](NC1=O)C(=O)N[C@@H](CCCCN)C(=O)NCC(=O)N[C@@H](Cc1c[nH]c4ccccc14)C(=O)N[C@@H](CCCNC(=N)N)C(=O)N[C@@H]([C@@H](C)O)C(=O)N[C@@H](CCCCN)C(=O)N[C@@H](CCCNC(=N)N)C(=O)N[C@H](C(=O)N[C@@H](CC(C)C)C(=O)N[C@@H](CC(N)=O)C(=O)N1CCC[C@H]1C(=O)O)CSSC[C@H](NC(=O)[C@H](CCCCN)NC(=O)[C@H](Cc1c[nH]cn1)NC(=O)[C@H](CC(C)C)NC(=O)[C@@H]1CCCN1C3=O)C(=O)N2 [MrVIII] (H-TEESACGGFNARCPLHKCCPQYICKGWRTKRCLNP-OH; disulfide 6-19, 13-24, 18-32; N-terminus and C-terminus assumed)
Va of Q-V curve of Kv1.7∗ after toxin ([1]; 500 nM MrVIII, before toxin −6.4 ± 2.9 mV, mean ± SD, n = 5, SD): −4.3 ± 3.8 mV
effect on IgON of Kv1.7∗ ([1]; 10 μM MrVIII, 500 ms depolarization): completely inhibited
IC50 ([1]; +30 mV for 50 ms, held at −100 mV, HEK293T, mean ± SD, n = 11, SD, read-out: IC50, inhibition of IgON current of Kv1.7∗): 214 ± 91.8 nM
inhibition at 10 µM ([1]; 10 μM MrVIII, 50 ms depolarization at +30 mV, mean ± SD, n = 11, SD, read-out: inhibition of IgOFF of Kv1.7∗): ~74.1%
inhibition at 10 µM ([1]; 10 μM MrVIII, 500 ms depolarization, mean ± SD, n = 5, SD, read-out: inhibition rate of IgOFF of Kv1.7∗): 13.1 ± 5.5%
IC50 [2]: 7.7 ± 5.3 nM
